Experimental data published in patent publication US6667311B2, “Nitrogen substituted biaryl purine derivatives as potent antiproliferative agents” (Albany Molecular Research, Inc., priority 2001, dated 2003).

Key:
Type in all cases: cell-based, human
UACC-62 = assay: NCI growth inhibition, UACC-62; conditions: UACC-62 (Melanoma)
T-47D = assay: NCI growth inhibition, T-47D; conditions: T-47D (Breast)
SW-620 = assay: NCI growth inhibition, SW-620; conditions: SW-620 (Colon)
NCI/ADR-RES = assay: NCI growth inhibition, NCI/ADR-RES; conditions: NCI/ADR-RES (Breast)
SK-MEL-28 = assay: NCI growth inhibition, SK-MEL-28; conditions: SK-MEL-28 (Melanoma)
SN12C = assay: NCI growth inhibition, SN12C; conditions: SN12C (Renal)
RXF 393 = assay: NCI growth inhibition, RXF 393; conditions: RXF 393 (Renal)
A549/ATCC = assay: NCI growth inhibition, A549/ATCC; conditions: A549/ATCC (Non-Small Cell Lung)
SF-295 = assay: NCI growth inhibition, SF-295; conditions: SF-295 (CNS)
IGROV1 = assay: NCI growth inhibition, IGROV1; conditions: IGROV1 (Ovarian)
SF-268 = assay: NCI growth inhibition, SF-268; conditions: SF-268 (CNS)
UACC-257 = assay: NCI growth inhibition, UACC-257; conditions: UACC-257 (Melanoma)
NCI-H522 = assay: NCI growth inhibition, NCI-H522; conditions: NCI-H522 (Non-Small Cell Lung)
NCI-H322M = assay: NCI growth inhibition, NCI-H322M; conditions: NCI-H322M (Non-Small Cell Lung)
ACHN = assay: NCI growth inhibition, ACHN; conditions: ACHN (Renal)
HCT-116 = assay: NCI growth inhibition, HCT-116; conditions: HCT-116 (Colon)
SK-OV-3 = assay: NCI growth inhibition, SK-OV-3; conditions: SK-OV-3 (Ovarian)
OVCAR-4 = assay: NCI growth inhibition, OVCAR-4; conditions: OVCAR-4 (Ovarian)
KM12 = assay: NCI growth inhibition, KM12; conditions: KM12 (Colon)
HOP-92 = assay: NCI growth inhibition, HOP-92; conditions: HOP-92 (Non-Small Cell Lung)
MALME-3M = assay: NCI growth inhibition, MALME-3M; conditions: MALME-3M (Melanoma)
SK-MEL-2 = assay: NCI growth inhibition, SK-MEL-2; conditions: SK-MEL-2 (Melanoma)
TK-10 = assay: NCI growth inhibition, TK-10; conditions: TK-10 (Renal)
A498 = assay: NCI growth inhibition, A498; conditions: A498 (Renal)
HS 578T = assay: NCI growth inhibition, HS 578T; conditions: HS 578T (Breast)
HCC-2998 = assay: NCI growth inhibition, HCC-2998; conditions: HCC-2998 (Colon)
CCRF-CEM = assay: NCI growth inhibition, CCRF-CEM; conditions: CCRF-CEM (Leukemia)
MOLT-4 = assay: NCI growth inhibition, MOLT-4; conditions: MOLT-4 (Leukemia)
MDA-MB-231/ATCC = assay: NCI growth inhibition, MDA-MB-231/ATCC; conditions: MDA-MB-231/ATCC (Breast)
SK-MEL-5 = assay: NCI growth inhibition, SK-MEL-5; conditions: SK-MEL-5 (Melanoma)
OVCAR-8 = assay: NCI growth inhibition, OVCAR-8; conditions: OVCAR-8 (Ovarian)
786-0 = assay: NCI growth inhibition, 786-0; conditions: 786-0 (Renal)
SF-539 = assay: NCI growth inhibition, SF-539; conditions: SF-539 (CNS)
SR = assay: NCI growth inhibition, SR; conditions: SR (Leukemia)
COLO 205 = assay: NCI growth inhibition, COLO 205; conditions: COLO 205 (Colon)
DU-145 = assay: NCI growth inhibition, DU-145; conditions: DU-145 (Prostate)
PC-3 = assay: NCI growth inhibition, PC-3; conditions: PC-3 (Prostate)
EKVX = assay: NCI growth inhibition, EKVX; conditions: EKVX (Non-Small Cell Lung)
CAKI-1 = assay: NCI growth inhibition, CAKI-1; conditions: CAKI-1 (Renal)
U251 = assay: NCI growth inhibition, U251; conditions: U251 (CNS)
HCT-15 = assay: NCI growth inhibition, HCT-15; conditions: HCT-15 (Colon)
BT-549 = assay: NCI growth inhibition, BT-549; conditions: BT-549 (Breast)
MDA-MB-435 = assay: NCI growth inhibition, MDA-MB-435; conditions: MDA-MB-435 (Breast)
K-562 = assay: NCI growth inhibition, K-562; conditions: K-562 (Leukemia)

SMILES: CC(=O)N[C@H]1CC[C@H](Nc2nc(NCc3ccc(-c4ccccc4)nc3)c3ncn(C(C)C)c3n2)CC1 [Compound 87]
- GI50 (UACC-62): 45 nM
- GI50 (T-47D): 48 nM
- GI50 (SW-620): < 10 nM
- GI50 (NCI/ADR-RES): 280 nM
- GI50 (SK-MEL-28): < 10 nM
- GI50 (SN12C): < 10 nM
- GI50 (RXF 393): 11 nM
- GI50 (A549/ATCC): < 10 nM
- GI50 (SF-295): 47 nM
- GI50 (IGROV1): 52 nM
- GI50 (SF-268): < 10 nM
- GI50 (UACC-257): 17 nM
- GI50 (NCI-H522): < 10 nM
- GI50 (NCI-H322M): 21 nM
- GI50 (ACHN): 190 nM
- GI50 (HCT-116): 37 nM
- GI50 (SK-OV-3): 350 nM
- GI50 (OVCAR-4): 48 nM
- GI50 (KM12): < 10 nM
- GI50 (HOP-92): 88 nM
- GI50 (MALME-3M): 24 nM
- GI50 (SK-MEL-2): 56 nM
- GI50 (TK-10): 29 nM
- GI50 (A498): 100 nM
- GI50 (HS 578T): < 10 nM
- GI50 (HCC-2998): < 10 nM
- GI50 (CCRF-CEM): < 10 nM
- GI50 (MOLT-4): 20 nM
- GI50 (MDA-MB-231/ATCC): < 10 nM
- GI50 (SK-MEL-5): 28 nM
- GI50 (OVCAR-8): 33 nM
- GI50 (786-0): 47 nM
- GI50 (SF-539): 81 nM
- GI50 (SR): 32 nM
- GI50 (COLO 205): < 10 nM
- GI50 (DU-145): 220 nM
- GI50 (PC-3): 18 nM
- GI50 (EKVX): 81 nM
- GI50 (CAKI-1): 64 nM
- GI50 (U251): 28 nM
- GI50 (HCT-15): 66 nM
- GI50 (BT-549): 20 nM
- GI50 (MDA-MB-435): < 10 nM
- GI50 (K-562): 24 nM
